Experimental data from patent EP4813383A1, “USE OF TAFAMIDIS AND PHARMACEUTICALLY ACCEPTABLE SALT THEREOF IN PREVENTION, ALLEVIATION, OR TREATMENT OF DISEASES ASSOCIATED WITH HIF-2a” (Huaya Jiyuan (Shenzhen) Pharmaceutical Co., Ltd., priority 2024, dated 2025).

What was measured:
[1] = system: Unilateral ureteral obstruction (UUO)-induced mouse model; assay: Unilateral ureteral obstruction (UUO)-induced mouse model of renal injury and anemia; assay type: in vivo, Male Balb/c mice; conditions: for Pathological score for renal tubular injury: H&E staining, Paller score, UUO control group 4.56 ± 0.19; for Reduction in fibrosis: Masson's trichrome staining, interstitial fibrosis, UUO control group 26.0 ± 1.9%; for Urea level: serum after final treatment, UUO control group 6.26 ± 0.14
Description: Animal model establishment: Male Balb/c mice are anesthetized with isoflurane and then secured to an operating table with medical tape. After preparation of an abdominal midline incision site, the surgical part is disinfected with 75% ethanol-iodine tincture-ethanol. Subsequently, an incision is made along the linea alba of the mouse, and the incision is held open with a laparotomy retractor. The left ureter is isolated using a sterile cotton swab and curved forceps and ligated near the bladder dome using 3-0 suture. One drop of normal saline is added into the abdominal cavity, and then the abdomen is sutured. Following recovery on a heating pad, the mouse is returned to the cage, maintained under normal feeding and drinking conditions, and observed, thereby completing model establishment. For the sham-operated group, all procedures are the same as those of the model group except that no ligation is performed. For the treatment groups in the UUO model, male Balb/c mice, after a one-week acclimation period, are orally administered tafamidis (tafamidis treatment group) or roxadustat (roxadustat treatment group) by gavage for three consecutive days. The dose in the first tafamidis treatment group is 5 mg/kg/day, the dose in the second tafamidis treatment group is 10 mg/kg/day, and the dose in the roxadustat treatment group is 10 mg/kg/day. The drug administration is continued for seven days after unilateral ureteral obstruction surgery. A solvent is administered to the mice in the sham-operated group and the UUO control group based on the same dosing regimen. Serum analysis is performed after the final treatment. Serum analysis is performed using a Mindray BS-2000M automated […] analyzer with commercially available kits based on the manufacturer's instructions. After sample collection, the […] are euthanized. Statistical significance is determined by one-way analysis of variance (ANOVA), and then a Dunnett's test is performed for comparison with the UUO control group (*P < 0.05, **P < 0.01, ***P < 0.001).
Isolated left kidney samples from mice are fixed in 4% paraformaldehyde, dehydrated, embedded in paraffin, and sectioned. The tissue sections are 4 µm thick, and are subsequently subjected to histochemical staining such as H&E staining and Masson's trichrome staining. After staining, the sections are scanned using advanced three-dimensional histological imaging technology, and high-resolution images are captured using a Pannoramic DESK/MIDI/250/1000 system. H&E staining is analyzed to evaluate renal tubular injury. 10 fields are randomly selected from each sample, and examined at a 40× magnification. The degree of renal tubular injury is assessed using a semi-quantitative scoring system (Paller score): 0 (no injury), 1 (<25% injury), 2 (25% to 50% injury), 3 (50% to 75% injury), and 4 (>75% injury). In addition, the entire tissue section is assessed at a 0.7× magnification to determine the extent of collagen fiber deposition shown by Masson's trichrome staining. Semi-quantitative analysis of the collagen fiber area is performed using Image-Pro Plus 6.0 software. Statistical significance is determined by one-way analysis of variance (ANOVA), and then a Dunnett's test is performed for comparison with the UUO control group (*P < 0.05, **P < 0.01, ***P < 0.001).

[2] = system: Cisplatin-induced renal injury and anemia rat model; assay: Cisplatin-induced renal injury and anemia rat model; assay type: in vivo, Male Sprague-Dawley (SD) rats
Experimental: Male Sprague-Dawley (SD) rats are allowed a one-week acclimation period, after which cisplatin (6 mg/kg) is administered through tail vein injection. A second injection is given one week later. Two weeks after the first administration, successful establishment of a renal disease model is confirmed by measuring serum creatinine and urea levels. The established rat model is randomly divided into four groups: a control group (n = 7), a cisplatin group (n = 6), a roxadustat group (n = 6), and a tafamidis group (n = 6). The roxadustat group and tafamidis group are orally administered the corresponding compound (roxadustat or tafamidis) at 10 mg/kg daily for four consecutive weeks. A corresponding solvent is administered to the control group and cisplatin group rat models based on the same dosing regimen. Urine samples are collected on the day following the final treatment, so as to measure UTP and UCREA. Hematological analysis is performed using a Mindray BC-5150 automated hematology analyzer, and urinalysis is performed using a Mindray BS-2000M automated biochemical analyzer, both using commercially available kits according to the manufacturers' instructions. After sample collection, the rats are euthanized. Statistical significance is determined by one-way analysis of variance (ANOVA), and then a Dunnett's test is performed for comparison with the cisplatin group (*P < 0.05, **P < 0.01, ***P < 0.001).
Left kidney samples collected from cisplatin-induced rats are fixed in 4% paraformaldehyde, dehydrated, embedded in paraffin, and sectioned. The tissue sections are 4 µm thick, and are subsequently subjected to histochemical staining such as hematoxylin-eosin (H&E), periodic acid-Schiff (PAS), and Masson's trichrome staining. After staining, the sections are scanned using advanced three-dimensional histological imaging technology, and high-resolution images are captured using a Pannoramic DESK/MIDI/250/1000 system. To evaluate renal tubular injury, 10 fields are randomly selected from each sample, and examined at a 40× magnification. The degree of renal tubular injury is assessed using a semi-quantitative scoring system (Paller score): 0 (no injury), 1 (<25% injury), 2 (25% to 50% injury), 3 (50% to 75% injury), and 4 (>75% injury). In addition, the entire tissue section is assessed at a 0.7× magnification to determine the extent of collagen fiber deposition shown by Masson's trichrome staining. Semi-quantitative analysis of the collagen fiber area is performed using Image-Pro Plus 6.0 software (Media Cybernetics, Rockville, MD, USA). For glomerular evaluation, 20 glomeruli are randomly selected from each rat and analyzed at a 63× magnification, using mesangial matrix expansion shown by PAS staining as an indicator. Semi-quantitative analysis of the mesangial matrix is likewise performed using Image-Pro Plus 6.0 software. Statistical significance is determined by one-way analysis of variance (ANOVA), and then a Dunnett's test is performed for comparison with the cisplatin group (*P < 0.05, **P < 0.01, ***P < 0.001).
Immunofluorescence staining is performed on 4 µm-thick kidney tissue sections. The sections are deparaffinized and rehydrated through ethanol, and then is subjected to microwave treatment in a 0.01 mol/L sodium citrate buffer (pH 6.0) for antigen retrieval. Subsequently, the sections are incubated overnight at 4 °C with a primary antibody against α-SMA (19245S, Cell Signaling Technology). After incubation, the sections is incubated at room temperature for 30 minutes with an HRP-conjugated secondary antibody (PK10009, Proteintech Group), and localization is performed using a DAB kit. After staining, the sections are scanned using advanced three-dimensional histological imaging technology, and high-resolution images are captured using a Pannoramic DESK/MIDI/250/1000 system. The entire tissue section is assessed at a 0.7× magnification to determine an α-SMA-positive region. […]

[3] = 10 mg/kg/day oral gavage, listed as Roxadustat
[4] = 10 mg/kg daily oral for four weeks, urine, versus cisplatin group
[5] = 10 mg/kg daily oral for four weeks, kidney tissue
[6] = 10 mg/kg daily oral for four weeks, urine, versus cisplatin group, p < 0.05

| SMILES | Pathological score for renal tubular injury ([1]; 10 mg/kg/day oral gavage) | Pathological score for renal tubular injury [1, 3] | Reduction in fibrosis ([1]; 10 mg/kg/day oral gavage) | Reduction in fibrosis [1, 3] | Urea level ([1]; 10 mg/kg/day oral gavage) | Urea level [1, 3] | UTP levels [2, 4] | Gross observation: pallor of the obstructed kidney ([1]; 5 mg/kg/day oral gavage) | Pathological score for renal tubular injury ([1]; 5 mg/kg/day oral gavage) | Urea level ([1]; 5 mg/kg/day oral gavage) | erythropoietin (EPO) protein levels, Western blot [2, 5] | α-SMA protein expression, Western blot [2, 5] | cisplatin-induced renal injury, semi-quantitative scoring (H&E, Masson's trichrome, PAS) ([2]; 10 mg/kg daily oral for four weeks, left kidney sections) | UCREA levels [2, 6] | UTP/UCREA ratio [2, 6] | Gross observation of kidney tissues (color) ([2]; 10 mg/kg daily oral for four weeks, normal control healthy red, cisplatin group white discoloration and edema) | Red blood cells (RBCs) ([2]; 10 mg/kg daily oral, week 4, cisplatin group 6.3 ± 0.3 ×10^12, p < 0.001) | Hematocrit (HCT) ([2]; 10 mg/kg daily oral, week 4, cisplatin group 46.2 ± 1.8%, p < 0.001) | Hemoglobin (HGB) ([2]; 10 mg/kg daily oral, week 4, cisplatin group 127.7 ± 4.7, p < 0.05) |
| --- | --- | --- | --- | --- | --- | --- | --- | --- | --- | --- | --- | --- | --- | --- | --- | --- | --- | --- | --- |
| Cc1nc(C(=O)NCC(=O)O)c(O)c2ccc(Oc3ccccc3)cc12 [roxadustat] | 4.78 ± 0.09 | 4.78 ± 0.09, P = 0.98 | 21.8 ± 1.6% | 21.8 ± 1.6%, P = 0.37 | 5.36 ± 0.10 mmol/L | 5.36 ± 0.10, P < 0.001 mmol/L | increases |  |  |  |  |  |  |  |  |  |  |  |  |
| O=C(O)c1ccc2nc(-c3cc(Cl)cc(Cl)c3)oc2c1 [tafamidis, 2-(3,5-dichlorophenyl)-1,3-benzoxazole-6-carboxylic acid] | 2.93 ± 0.35, P < 0.05 |  |  |  | 5.28 ± 0.29, P < 0.05 mmol/L |  | little effect | significantly alleviates | 2.85 ± 0.83, P < 0.05 | 5.67 ± 0.23, P = 0.10 mmol/L | increasing | significantly reduces | significantly alleviates | increases | reducing | normal red color | 8.1 ± 0.4 × 10^12 cells/L | 58.4 ± 2.9% | 161.8 ± 9.3 g/L |
